Laboratory results as given in article PMC7849011, “Defining the Antimalarial Activity of Cipargamin in Healthy Volunteers Experimentally Infected with Blood-Stage Plasmodium falciparum” (Antimicrobial Agents and Chemotherapy, 2021).
Converted amounts (≈) assume the structure as drawn. “Also recorded” adds a separate entry of the source. Where two headings read alike, the source gives them in different places.

How the values were obtained:
[1] = set-up: method as in PMID 25114127; details: cited from earlier work
[2] = tested on: P. falciparum; details: cited from earlier work
[3] = clinical; details: human, in vivo, 10 mg
Experimental: Blood samples were collected at the following time points after dosing to determine the cipargamin plasma concentration: 1, 2, 3, 4, 8, 12, 16, 24, 36, 48, 72, 96, and 120 h. Samples were analyzed by liquid chromatography-tandem mass spectrometry as previously described ([8]). Noncompartmental PK analysis was performed using WinNonlin Pro version 6.4.

[4] = tested on: P. falciparum gametocytes; assay: Direct membrane feeding assay (DMFA), transmission to Anopheles stephensi mosquitoes; assay type: in vivo, Plasmodium falciparum; details: blood collected 20 days after cipargamin dosing
Experimental: The transmission of parasites from subjects to female Anopheles stephensi mosquitoes was measured using a direct membrane feeding assay (DMFA) as previously described ([23]). Briefly, ∼100 mosquitoes (3 to 7 days old) were allowed to feed on a water-jacketed membrane feeder filled with venous blood collected 20 days after cipargamin dosing into lithium heparin anticoagulant tubes. Seven to 9 days after blood feeding, mosquitoes were dissected to detect oocysts in midgut preparations using qPCR targeting the gene encoding 18S rRNA.

[5] = tested on: Plasmodium berghei; set-up: method as in PMID 25114127, PMID 25487807; details: human PK data with preclinical PK/PD analysis; cited from earlier work
[6] = tested on: P. falciparum 3D7; assay: Induced blood-stage malaria (IBSM) volunteer infection study: parasitemia by 18S rRNA qPCR; assay type: in vivo, Plasmodium falciparum; details: for Log10PRR48 (95%CI) / Parasite Clearance Half-Life (95%CI): 10 mg
Excerpt: A single cohort of eight subjects was inoculated intravenously with P. falciparum 3D7-infected human erythrocytes (approximately 1,800 viable parasites) as previously described ([24]). Parasite growth was monitored by collecting blood samples and performing quantitative PCR (qPCR) targeting the gene encoding P. falciparum 18S rRNA ([25]). […] The dose of cipargamin selected was predicted to be subtherapeutic based on preclinical modeling ([7]) and pharmacokinetic data obtained in previous clinical studies ([8]) and thus chosen to facilitate modeling to estimate the pharmacokinetic/pharmacodynamic relationship. To monitor total parasitemia, blood samples were collected for 18S rRNA qPCR before inoculation, on day 3, twice daily on days 4 to 6, pretreatment on day 7, and 4, 8, 12, 16, 24, 30, and 36 h posttreatment, twice daily from day 9 to day 11, and every 1 to 3 days until day 35. Blood samples for gametocytemia measurements were collected on day 11, every 1 to 3 days between day 15 and day 29, and on day 35. […] Analyses were performed in R version 3.3.0. The PRR and parasite clearance half-life were estimated using the slope of the optimal fit for the log-linear relationship of the parasitemia decay as described previously ([27]).

[7] = tested on: Plasmodium falciparum; details: cited from earlier work
[8] = tested on: rodent malaria model; set-up: method as in PMID 20813948; details: cited from earlier work
[9] = 10 mg single oral dose, 8 healthy subjects, IBSM

## C[C@H]1Cc2c([nH]c3cc(Cl)c(F)cc23)[C@@]2(N1)C(=O)Nc1ccc(Cl)cc12 [cipargamin]
[1]; 10 mg, healthy subjects, first-in-human study
  AUC0–∞: 1860 ng·h/mL
[1]; 72 healthy subjects, single doses up to 300 mg or up to 150 mg daily for 3 days
  LFT abnormalities: only one subject displayed mild LFT abnormalities
[1]; single dose up to 300 mg or up to 150 mg daily for 3 days
  tolerability in humans: tolerated
[2]; 10 mg single dose, patients with P. falciparum malaria
  parasite clearance half-life: 4.35 h
[2]; 30 mg per day for 3 days, P. falciparum malaria patients
  parasite clearance half-life: 0.90 h
[2]; 30 mg single dose (highest tested), phase 2a
  parasite clearance half-life: 1.47 h
[2]; 3-day regimen of 30 mg daily, patients infected with P. falciparum or Plasmodium vivax, Thailand
  clearance of parasitemia in patients: demonstrated to clear parasitemia
[2]; patients with P. falciparum malaria, doses 10, 15, 20 and 30 mg
  MIC estimated in patients: 0.1 ng/mL (≈ 0.256 nM)
[3]
  drug exposure (AUC0–∞) in IBSM subjects, fold lower than in patients with naturally acquired malaria: around 3 fold
[3]; po
  AUC(0-inf): 1950 ± 753 ng·h/mL
  CL/F, mean ± SD (% CV): 5.72 ± 1.93 (33.7) liters/h
  Cmax: 101 ± 18.3 ng/mL
  Tmax: 2 h
  Vd/F: 209 ± 54.5 L
[3]; po, AUC0–24 h, mean ± SD (% CV)
  AUC(0-t): 1010 ± 242 ng·h/mL
[3]; po, AUC0–last, mean ± SD (% CV)
  AUC(0-t): 1850 ± 690 ng·h/mL
[3]; po, t1/2 (elimination half-life), mean ± SD (% CV)
  half-life: ~26 h
[4]
  transmission to mosquitoes (oocysts in midgut by qPCR): did not transmit to mosquitoes; also recorded: could not be detected; also recorded: not observed
[5]
  daily dose predicted to be sufficient to clear parasitemia in malaria patients: 30 mg
[6]; 10 mg single oral dose
  time to observed reduction in parasitemia: ≤ 24 h
[6]; [9]
  log10 parasite reduction ratio over 48 h postdose (PRR48), cohort-specific: 3.63
  parasite clearance half-life, cohort-specific: 3.99 h
[6]; 10 mg single oral dose, all 8 subjects
  time of parasite regrowth after dosing: 3 to 8 days
[6]; subject 1
  Log10PRR48 (95%CI): 4.22 (3.15, 5.29)
  Parasite Clearance Half-Life (95%CI): 3.42 (2.73, 4.59) h
[6]; subject 2
  Log10PRR48 (95%CI): 5.84 (4.79, 6.90)
  Parasite Clearance Half-Life (95%CI): 2.47 (2.10, 3.02) h
[6]; subject 3
  Log10PRR48 (95%CI): 4.09 (3.45, 4.73)
  Parasite Clearance Half-Life (95%CI): 3.53 (3.05, 4.19) h
[6]; subject 4
  Log10PRR48 (95%CI): 2.18 (1.62, 2.73)
  Parasite Clearance Half-Life (95%CI): 6.64 (5.30, 8.90) h
[6]; subject 5
  Log10PRR48 (95%CI): 4.23 (3.48, 4.98)
  Parasite Clearance Half-Life (95%CI): 3.42 (2.90, 4.15) h
[6]; subject 6
  Log10PRR48 (95%CI): 1.28 (0.85, 1.71)
  Parasite Clearance Half-Life (95%CI): 11.39 (8.47, 17.37) h
[6]; subject 7
  Log10PRR48 (95%CI): 4.12 (3.22, 5.03)
  Parasite Clearance Half-Life (95%CI): 3.51 (2.87, 4.49) h
[6]; subject 8
  Log10PRR48 (95%CI): 4.63 (4.34, 4.92)
  Parasite Clearance Half-Life (95%CI): 3.12 (2.93, 3.33) h
[7]
  in vitro activity against P. falciparum stages: active against both asexual and sexual stages
  inhibition of early- and late-stage gametocyte development in vitro: potent inhibitor
  inhibition of oocyst development in vitro: potent inhibition
[8]
  cure in rodent malaria model: single-dose cure was demonstrated
